Results reported in patent EP1258248A2, “Tumor treatments comprising a fumagillol derivative and a further antineoplastic agent” (TAP Pharmaceutical Products, Inc., priority 2001, dated 2002).
Where two headings read alike, the source gives them in different places.

Tests used:
[1] = system: advanced or metastatic cancer; test: Phase I clinical study of intermittent TNP-470 with paclitaxel and carboplatin at a dose of AUC 6 (Example 2)
Experimental: Doses of TNP-470 and paclitaxel were modified as described below.
Twenty adult patients with advanced or metastatic cancer, were treated with TNP-470 (synthesized according to the procedure of U.S. Patent No. 5,180,738) in a liquid cyclodextrin-containing formulation using repeated administrations of a high dose (60 mg/m^2) given over one hour, combined with 225 mg/m^2 paclitaxel given over three hours. Carboplatin was given at doses calculated to provide an "area-under-the-curve (AUC)" exposure of 5 or 6 mg/mL/min (hereinafter referred to as "a dose of AUC 5" or "a dose of AUC 6"), according to the formula Dose (mg) = AUC x (glomerular filtration rate + 25) [formula] as described in the package insert for carboplatin. Glomerular filtration rate was estimated by creatinine clearance, either measured or calculated from the patient's age, weight, gender and serum creatinine according to the Cockcroft-Gault equation Cr CL = ((140-age) x weight (kg)/72 x serum creatinine) x 1.0 if male or 0.85 if female [formula]
In this study, paclitaxel was administered first, followed one hour later by TNP-470, then finally by the carboplatin. TNP-470 administrations were repeated up to three thimes per week. Paclitaxel and carboplatin administrations were repeated every three weeks as the patients' condition permitted. Anti-emetic therapy and prophylaxis against paclitaxel hypersensitivity were administered in accordance with the paclitaxel package insert on days when paclitaxel and carboplatin were administered.
The patients' tumors were measured at the start of the study, after six to eight weeks of therapy, and at two-month intervals thereafter. Patients continued to receive TNP-470 until tumors grew by 50% or they experienced adverse events.
Three patients, all with non-small cell lung cancer, received TNP-470 in combination with paclitaxel and carboplatin (a dose of AUC 5).

[2] = system: advanced or metastatic cancer; test: Phase I clinical study of intermittent TNP-470 combined with paclitaxel (Example 1), all patients; assay type: in vivo, human; conditions: TNP-470 20-60 mg/m^2 + 135-225 mg/m^2 paclitaxel; 32 patients (different cancers)
Description: (§1) TNP-470 administrations were repeated up to three times per week.
(§2) In the table, "response" refers to the percentage of patients whose tumor shrank by more than fifty percent; and "time to progression" refers to the median value of the length of time between the first dose of drug and observation that the tumor has grown by more than fifty percent, or that new tumors have appeared. Patients who stop taking the drug for other reasons are considered lost to follow-up for "time to progression" calculations. "Survival" in the table is a median value.

[3] = system: non-small cell lung cancer; test: Phase I clinical study of intermittent TNP-470 with paclitaxel and carboplatin at a dose of AUC 5 (Example 2); assay type: in vivo, human
lung cancer [4] = test: Phase I clinical study of intermittent TNP-470 combined with paclitaxel (Example 1), lung cancer patients; assay type: in vivo, human
Description: as §1, §2

metastatic cancer = test: Phase I clinical study of continuously infused TNP-470 with paclitaxel and carboplatin (Example 3); assay type: in vivo, human; conditions: TNP-470 2.5-10 mg/m^2 continuous infusion with or without 60 on Day 1 + 200-225 mg/m^2 paclitaxel; carboplatin AUC 5-6; 20 patients (different cancers)
Experimental: Twenty adult patients with metastatic cancer, including patients with lung cancer, were treated with TNP-470, using repeated continuous administrations of low doses (2.5-10 mg/m^2 over five days in combination with paclitaxel at doses of 200-225 mg/m^2 and carboplatin at a dose of AUC 5 or AUC 6 (as explained in Example 2 above) reported in row 7 of Table 1 above.
In this study, paclitaxel was administered first, followed by the carboplatin, then by TNP-470 administered intravenously via portable continuous infusion syringe pump (available from Sims-Deltec) at a dose of 2.5 -10 mg/m^2 for five days (115-120 hours). The five-day TNP-470 infusion was repeated every week.
In an ongoing cohort of this study, in addition to the described therapy, nine patients received 60 mg/m^2 TNP-470 as a one-hour intravenous infusion after infusion of paclitaxel and prior to infusion of carboplatin. This high-dose one-hour TNP-470 infusion was administered only when paclitaxel and carboplatin were administered.

lung cancer [5] = conditions: no TNP-470, lung cancer historical data, cited from earlier work
[6] = TNP-470 60 mg/m^2 + 225 mg/m^2 paclitaxel, carboplatin AUC 6, 14 patients (different cancers)
[7] = TNP-470 20-60 mg/m^2 + 135-225 mg/m^2 paclitaxel, 15 patients (lung cancer only), median

Structure (SMILES)	tolerability of the combined therapy ([1]; TNP-470 60 mg/m^2 + 225 mg/m^2 paclitaxel + carboplatin at a dose of AUC 6, variety of different cancers, prior chemotherapy)	Survival (months) [1, 6]	Time to Progression (months) [1, 6]	Responses (percentage) ([1]; TNP-470 60 mg/m^2 + 225 mg/m^2 paclitaxel, carboplatin AUC 6, 14 patients (different cancers), prior chemotherapy, insufficient therapy to evaluate effectiveness)	Responses (percentage) [2] [percentage]	Responses (percentage) ([3]; TNP-470 60 mg/m^2 + 225 mg/m^2 paclitaxel, carboplatin AUC 5, 3 patients (lung cancer only))	Survival (months) ([3]; TNP-470 60 mg/m^2 + 225 mg/m^2 paclitaxel, carboplatin AUC 5, 3 patients (lung cancer only), individual values)	tumor response in words ([3]; TNP-470 in combination with paclitaxel and carboplatin (a dose of AUC 5), three patients, all with non-small cell lung cancer)	tumor shrinkage ([3]; TNP-470 with paclitaxel and carboplatin, patients with non-small-cell lung cancer)	Survival (months) (lung cancer [4]; [7])	Time to Progression (months) (lung cancer [4]; [7])	Responses (percentage) (lung cancer [4]; TNP-470 20-60 mg/m^2 i.v. up to three times per week + 135-225 mg/m^2 paclitaxel every three weeks, 15 patients (lung cancer only))	increase in survival over that previously reported for patients treated with paclitaxel alone (lung cancer [4]; TNP-470 + paclitaxel, patients with lung cancer, 14.3 months vs. 8 months)	Responses (percentage) (metastatic cancer)	Survival (months) (lung cancer [5]; median)	Time to Progression (months) (lung cancer [5]; median)	Responses (percentage) (lung cancer [5]; patients whose tumor shrank by more than fifty percent)
CO[C@@H]1[C@H](OC(=O)NC(=O)CCl)CC[C@]2(CO2)[C@H]1[C@@]1(C)O[C@@H]1CC=C(C)C [TNP-470, 6-O-(N-chloroacetylcarbamoyl) fumagillol]	tolerated the combined therapy poorly beyond two cycles of therapy	regimen not tolerated	regimen not tolerated	0	28	100	often, sixteen and more than twenty-two	All three had partial responses	experienced tumor shrinkage	14.3	5.4	33	greater than 70%	20	–	–	–
CC(=O)O[C@H]1C(=O)[C@@]2(C)[C@H]([C@H](OC(=O)c3ccccc3)[C@]3(O)C[C@H](OC(=O)[C@H](O)[C@@H](NC(=O)c4ccccc4)c4ccccc4)C(C)=C1C3(C)C)[C@]1(OC(C)=O)CO[C@@H]1C[C@@H]2O [paclitaxel]	–	–	–	–	–	–	–	–	–	–	–	–	–	–	6-9 months	∼3 months	20-30 percentage
